The values below come from patent US11752125B2, “Anti-neuroinflammatory and protective compounds in Achillea fragrantissima” (THE STATE OF ISRAEL MINISTRY OF AGRICULTURE & RURAL …, priority 2013, dated 2023).

The test system of series [1] is N2a neuronal cells. The series is described as follows: Aβ25-35-induced ROS elevation in N2a cells. Particulars: Aβ25-35 25 μM, 20 hr. It counts as cell-based. As for the experimental part:
2. Plate N2a cells (10,000 cells/0.2 ml/well of 96 wells plate) in DMEM (high glucose, 225 ml), Opti-MEM (250 mil) containing 5% Fetal Bovine Serum, 2 mM L-Glutamine, 100 U/ml penicillin and 100 micrograms/mL streptomycin and incubate (37° C., 5% CO2) for 24 hr. 3. Replace the medium with a fresh one containing 20 micromolars 2′7′-dichlorofluorescein diacetate (DCF-DA); 4. Incubate 30 min (37° C., 5% CO2); 5. Wash twice with PBS; 6. Replace with fresh medium; 7. Read fluorescence of “time 0” at 485 nm (Extinction) and 528 nm (Emmision). 8. Incubate the cultured cells for 2 hours with freshly diluted TTF or AcA of the invention; 9. Add freshly diluted Aβ25-35 (25 micromolars); 10. Read fluorescence at 20 hr after the addition of Aβ25-35 (25 micromolars) (Ex: 485 nm and Em: 528 nm). 11. A reduction of 70% of ROS levels are indication for an anti-oxidant activity in this assay.
N2a neuronal cells were treated with Aβ25-35 (25 μM) and TTF. ROS levels were measured 20 hr later. The results are shown in FIG. 11 and are the mean±SEM of two different experiments (n=15).
N2a neuronal cells were treated with Aβ25-35 (25 μM) and achillolide A. Cytotoxicity (FIG. 27A) viability (FIG. 27B) and ROS levels (FIG. 27C) were measured 20 hr later. The results are the mean±SEM of two different experiments (n=16).

For series [2], the system named is N2a neuronal cells. The series is described as follows: Glutamate-induced ROS elevation in N2a cells. It counts as cell-based. Particulars: glutamate 100 μM, 20 hr. As to the method:
1. Plate N2a cells (10,000 cells/0.2 ml/well of 96 wells plate) in DMEM (high glucose, 225 ml), Opti-MEM (250 ml) containing 1% Fetal Bovine Serum, 2 mM L-Glutamine, 100 U/ml penicillin and 100 micrograms/mL streptomycin and incubate (37° C., 5% CO2) for 24 hr. 2. Replace growth medium with a fresh one containing 20 micromolars 2′7′-dichlorofluorescein diacetate (DCF-DA); 3. Incubate 30 min (37° C., 5% CO2); 4. Wash twice with PBS; 5. Replace with fresh medium; 6. Read fluorescence of “time 0” at 485 nm (Extinction) and 528 nm (Emmision). 7. Incubate the cultured cells for 2 hours with freshly diluted TTF or AcA of the invention; 8. Add freshly diluted glutamate (100 micromolars); 9. Read fluorescence at 20 hr after the addition of glutamate (100 micromolars) (Ex: 485 nm and Em: 528 nm). 10. A reduction of 55% of ROS levels are indication for an anti-oxidant activity in this assay.
N2a neuronal cells were treated with glutamate (100 μM) and TTF. ROS levels were measured 20 hr later. The results are shown in FIG. 17 and are the mean±SEM of two different experiments (n=16).
N2a neuronal cells were treated with glutamate (100 μM) and achillolide A. ROS levels were measured 20 hr later. […]
Achillolide A was added to N2a cells before (−2 h, −1 h) concomitant (0) or after (1 h, 2 h) the addition of glutamate. ROS levels were measured 20 h later. […]

Series [3] deals with microglial cells. As to the kind of experiment: Cellular antioxidant activity (ABAP peroxyl radicals) in microglial cells. It counts as cell-based, rat. Particulars: ABAP 0.6 mM, dexamethasone at nanomolar concentrations. As to the method:
Intracellular ROS production was detected using the non-fluorescent cell permeating compound, 2′7′-dichlorofluorescein diacetate (DCF-DA). DCF-DA is hydrolyzed by intracellular esterases and then oxidized by ROS to a fluorescent compound 2′-7′-DCF. Peroxyl radicals are generated by thermolysis of 2,2′-Azobis(amidinopropane) (ABAP) at physiological temperature. ABAP decomposes at approximately 1.36×10^−6s^−1 at 37° C., producing at most 1×10^12 radicals/mL/s. Microglial cells (130,000 cells/well) were plated in DMEM containing 2% FBS, 8.4 mM HEPES, 2 mM glutamine, 100 U/mL penicillin and 100 μg/mL streptomycin, onto 24 wells plates. In order to measure the ability of achillolide A to enter the cells and prevent the formation of DCF by ABAP-generated peroxyl radicals, cells were incubated for 1 h with achillolide A. Then cells were preloaded with DCF-DA for 30 min, washed twice with PBS, and ABAP (0.6 mM final concentration) was then added. The fluorescence, which indicates ROS levels, was measured in a plate reader with excitation at 485 nm and emission at 520 nm.
Cells were incubated for 1 h with different concentrations of achillolide A. Then, the cells were pre-loaded with DCF-DA for 30 min and washed. ABAP (0.6 mM) was added to the culture and ROS levels were measured at the indicated time points. […]

The test system of series [4] is microglial cells. The series is described as follows: Cytotoxicity in LPS-activated microglial cells (LDH). It counts as cell-based, rat. Particulars: LPS 4.5 ng/mL, 20 h. As to the method:
Cell viability was determined using a commercial colorimetric assay (Roche Applied Science, Germany) which measures Lactate Dehydrogenase (LDH) activity released from the cytosol of damaged cells into the incubation medium. The absorbance was measured at 492 nm in a plate reader. The percentage of cytotoxicity was calculated according to the following equation, where the LDH activity released from the untreated cells is the spontaneous LDH release, and the maximum releasable LDH in the cells is the:
In FIG. 21 A, microglial cells were treated with different concentrations of achillolide A, dexamethasone or memantine (as reference drugs) and were concomitantly activated by LPS (4.5 ng/mL) for 20 h. Cell conditioned supernatants were collected, and the levels of NO were measured using Griess reaction. Cytotoxicity was measured using the LDH method (FIG. 21B). Values represent the mean±SEM (n=12 for each treatment). ** p<0.01; ***p<0.001 relative to cells that were treated to LPS only.

The test system of the next series is MEK1. As to the kind of experiment: SNP-induced MEK1 phosphorylation in N2a cells (ELISA). It counts as cell-based. Particulars: concomitant treatment 40 min, total protein not affected. As to the method: N2a cells were treated concomitantly with SNP and TTF for 40 min. Cells were extracted and the levels of phosphorylated or total MEK1 were determined by specific ELISA kits. The results are shown in FIG. 20 are the mean±SEM of two different experiments […].
In general terms: In an ELISA, binding on a coated surface is turned into a signal by an enzyme label.

Structures are written as SMILES.

For the compound `C=C1CCC2=C(CO)C(=O)O[C@H]2/C=C(\C)[C@H](OC(C)=O)CC1=O` [achillolide A], the “effect on Aβ25-35-induced ROS elevation” value with N2a neuronal cells [1] is given as “prevents the elevation in ROS levels”. Moreover, the “effect on glutamate-induced ROS elevation” value with N2a neuronal cells [2] was “prevents the elevation in ROS levels”. Besides, the “inhibition of the ABAP-induced increase in ROS fluorescence” value in the series with microglial cells [3] turned out to be 54%. Also, in the series on microglial cells [4], the “cytotoxic effect in activated microglial cells” value is given as “without a significant cytotoxic effect”.
Consider `COc1cc(-c2oc3cc(OC)c(OC)c(O)c3c(=O)c2O)ccc1O` [TTF, 3,5,4′-trihydroxy-6,7,3′-trimethoxyflavone], for which, in the series with MEK1, the “effect on SNP-induced phosphorylation of MEK1” value was “significantly inhibited”. The “effect on Aβ25-35-induced ROS elevation” value in the series with N2a neuronal cells [1] was “prevents the elevation in ROS levels”. Also, in the series with N2a neuronal cells [2], the “effect on glutamate-induced ROS elevation” value is reported as “prevents the elevation in ROS levels”.
